According to patent US11642341B2, “Combination of brexpiprazole and nalmefene and use thereof for treating substance-related disorders” (OTSUKA PHARMACEUTICAL CO., LTD., priority 2014, dated 2023):
Where a name gives a salt, the structure may show the parent alone.

Experiments:
Wistar rats [1] = assay: Measurement of alcohol intake by limited access paradigm; type: in vivo; details: data not shown
Procedure: Measurement method: An impulsive behavior of cravings for drinking alcohol was evaluated as follows by reference to the method of Sinclair et al. (Alcohol 1992; 9:441-44 and Alcohol & Alcoholism 2001; 36:2-10). First, Wistar rats (male) were allowed to freely drink 10% aqueous ethanol solution and tap water for several weeks under isolated rearing. After the ethanol intake of each animal became stable, limited access paradigm allowing ethanol intake only for 1 hr per day was started, and the ethanol intake in 1 hr was measured every day. The ethanol intake was calculated from the results of weight measurement of a water supply bottle filled with 10% aqueous ethanol solution immediately before the start of the limited access paradigm and immediately after the completion of the limited access paradigm. […] The limited access paradigm test was performed during 9:00 AM-4:00 PM. […]
The significance level of the test was set to 5%. […] The difference between an average ethanol intake in the limited access paradigm for 4 days immediately before drug evaluation and an average ethanol intake in the limited access paradigm for 4 days during the drug administration period was calculated for every animal, and analyzed by two-way factorial analysis of variance by using the presence or absence of brexpiprazole and the presence or absence of nalmefene as factors.

rat = assay: Spontaneous locomotor activity under novel environments; type: in vivo; details: data not shown
Wistar rats [2] = details: report Alcohol & Alcoholism 2001; 36: 2-10; present dose 0.04 mg/kg; cited from earlier work
[3] = brexpiprazole alone 0.01 mg/kg orally
[4] = nalmefene hydrochloride monohydrate alone 0.04 mg/kg subcutaneously

O=c1ccc2ccc(OCCCCN3CCN(c4cccc5sccc45)CC3)cc2[nH]1 [brexpiprazole, 7-[4-(4-benzo[b]thiophen-4-yl-piperazin-1-yl)butoxy]-1H-quinolin-2-one]
influence on ethanol intake, drug by itself (Wistar rats [1]; [3]): does not, by itself, influence
influence on spontaneous locomotor activity under novel environments, drug by itself (rat; [3]): does not, by itself, influence

C=C1CC[C@@]2(O)[C@H]3Cc4ccc(O)c5c4[C@@]2(CCN3CC2CC2)[C@H]1O5 [nalmefene hydrochloride monohydrate]
influence on ethanol intake, drug by itself (Wistar rats [1]; [4]): does not, by itself, influence
influence on spontaneous locomotor activity under novel environments, drug by itself (rat; [4]): does not, by itself, influence

C=C1CC[C@@]2(O)[C@H]3Cc4ccc(O)c5c4[C@@]2(CCN3CC2CC2)[C@H]1O5 [nalmefene, 17-(cyclopropylmethyl)-4,5α-epoxy-6-methylenemorphinan-3,14-diol]
dose at which nalmefene used singly shows effects in this evaluation system, relative to the dose used in the present test (Wistar rats [2]): about 10 times
